# Assay results taken from patent US10918891B2, “Cosmetic treatment method for the skin” (SYNTIVIA, priority 2016, dated 2021).
# Marks after values point to notes of the source that are not given here.
# How the values were obtained:
# MMP-3 = assay: Gene expression of MMP-3 by quantitative RT-PCR in NHEK; format: cell-based, human; conditions: (Ia) 3 ppm (10^−5M), 24 hours
# Procedure: In these examples, the expression of the messenger RNA is measured by the technique of quantitative RT-PCR (reverse transcription followed by polymerase chain reaction), after incubation in vitro of the various cell types in the absence or in the presence of compound (Ia).
# This study was carried out on normal human dermal Fibroblasts (NHDF) or normal human epidermal Keratinocytes (NHEK). The compound (Ia) is tested at 10^−5M in an aqueous solution with 0.1% dimethylsulfoxide.
# The cells are cultured at the concentration of 10,000 cells per well of 96-well plates, in the presence of standard culture medium according to the cell type.
# The compound (Ia) is then added at the concentration (3 ppm), for 24 hours.
# The supernatant is eliminated and the cells are taken up in a specific buffer for the extraction of the messenger RNA (mRNA). The mRNA is purified and reverse transcribed in the presence of a commercial reverse transcriptase.
# The complementary DNA (cDNA) obtained is quantified by RT-PCR, by means of suitable primers. The rate of expression of the mRNA is normalised with 5 reference genes.
# The cells used for this example are normal human keratinocytes (NHEK).
# NHDF cells = assay: DNA double-strand breaks (γ-H2AX) induced by cigarette extract in NHDF; format: cell-based, human; conditions: (Ia) 10 ppm pretreatment 24 h and treatment 24 h, cigarette extract 1/50, Control 6441, Cigarette extract 11404
# Procedure: (§1) The cells used for this example are normal human Fibroblasts (NHDF) and normal human epidermal Keratinocytes (NHEK).
# (§2) The cells are cultured at the concentration of 3000 cells per well of 96-well plates in the presence of standard culture medium for NHDF or NHEK (for 24 hours, 37° C., 5% CO2).
# (§3) After pretreatment of the cells with the compound (Ia) at 10 ppm for 24 hours, the cells are treated with the cigarette extract diluted to 1/50° with or without compound (Ia) at 10 ppm for 24 hours. […].
# (§4) After washing, the samples are then placed in the presence of DAPI for 10 min in order to mark the nuclei, then rinsed once again. The marked proteins are observed and quantified with an automated fluorescence microscope (ArrayScan® (Cellomics®)). The cells treated by the compound (Ia) are then compared to the untreated cells or to the cells only exposed to the cigarette extract.
# NHEK cells [1] = assay: DNA double-strand breaks (γ-H2AX) induced by cigarette extract in NHEK; format: cell-based, human; conditions: (Ia) 10 ppm pretreatment 24 h and treatment 24 h, cigarette extract 1/50, Control 10346, Cigarette extract 13269
# Procedure: as §1, §2, §3, §4
# [2] = system: normal human Fibroblasts (NHDF); assay: Cellular viability test with cadmium on NHDF; format: cell-based; conditions: pretreatment 24 h and treatment 24 h with (Ia) 10 ppm, Cd 3 ppm, read at 450 nm, CTL (Cd 3 ppm) 0.95
# Procedure: The cells used for this example are normal human Fibroblasts (NHDF).
# A cellular viability test with cadmium is carried out in order to know the protective effect of the compound (Ia) against polluting stress. Cadmium (Cd) is a toxic and ecotoxic heavy metal found in the environment.
# The cells are cultured at the concentration of 7000 cells per well of 96-well plates.
# The pretreatment is carried out 24 hours after the inoculation of the cells with the compound (Ia) at 10 ppm in an aqueous solution with 0.1% dimethylsulfoxide, or without compound (Ia) for 24 hours.
# After the pretreatment, a treatment with cadmium is carried out. The cells are placed in the presence of cadmium at 3 ppm+compound (Ia) at 10 ppm, or only in the presence of cadmium at 3 ppm (CTL) for 24 hours at 37° C., 5% CO2. The control without stress (CTL without stress) corresponds to the cells not having undergone a treatment with cadmium.
# NHEK cells [3] = assay: Cellular viability (WST1) of NHEK exposed to cigarette extract; format: cell-based, human; conditions: (Ia) 10 ppm pretreatment 24 h and treatment 24 h; cigarette extract diluted 1/50; WST1, 450 nm; Control 2.070, Cigarette extract 1.392
# Procedure: as §1
# A cigarette extract is prepared using a laboratory device allowing the sucking up of cigarette smoke via a suction system, and the controlled bubbling of this cigarette smoke into the solution studied, which is then filtered on a 0.22 μm filter made of Polyether sulfone (PES).
# The cells are cultured at the concentration of 7000 cells per well of 96-well plates (NHDF) or 8000 cells per well (NHEK), in the presence of standard culture medium for NHDF or NHEK (for 24 h 37° C., 5% CO2).
# After pretreatment of the cells with the compound (Ia) at 10 ppm for 24 h the cells are treated with the cigarette extract diluted to 1/50th in the culture medium with or without the compound (Ia) at 10 ppm for 24 h. The absorbance is read a first time at […] (Multiskan®).
# Then, 10 μl of WST1 (Roche) are introduced into the medium and the cells are incubated for 3 hours.
# The absorbance at 450 nm is measured after the addition of WST1 (Multiskan®) and the results obtained, in terms of cellular viability, are shown in tables 11 and 12 below. The treated cells (Cigarette extract+(Ia)) are compared to the untreated cells (Control) or to the cells having only undergone exposure to the cigarette extract (Cigarette extract).
# [4] = system: explants of human skin (NATIVESKIN, Genoskin); assay: Morphological study (haematoxylin and eosin) of human skin explants after repeated UVA irradiation; format: cell-based; conditions: skin explant; topical (Ia) 100 ppm; three UVA stresses 50 J/cm2; FIG. 3
# Procedure: In these examples, the protective properties of the compound (Ia) against the damage caused to the DNA and to the extracellular matrix by repeated UVA irradiation, are measured on explants of human skin (NATIVESKIN, Genoskin).
# Upon reception of the explants, the latter are topically coated with Carbopol® (Lubrizol)+DMSO for the non-UVA control (CTL without stress) and for the control with stress by UVAs (CTL UVA), and with Carbopol®+compound (Ia) at 100 ppm for the test.
# Over three days, the cells are subjected to three stresses with UVAs at a rate of 50 joules per square centimetre.
# The first irradiation takes place 24 hours after the treatments. The products are present before, during and after the irradiation. The control without stress is wrapped in aluminium and also placed in the irradiator.
# During the irradiation, the explants inserted are disposed in a petri dish with PBS. Fresh medium (Genoskin Culture medium) is added after the irradiation.
# After the third day of irradiation, the explants are cultivated for 24 hours, then collected and fixed for 48 hours in formalin (Sigma). The samples are included in paraffin and cut.
# A morphological study of the skin is implemented.
# The samples of explant are deparaffined, rehydrated and then they are subjected to colouration with haematoxylin and with eosin in order to observe the in-depth effect of the compound (Ia) on the skin. […]
smiles,measurement,setting,value
Cc1ncc(CO)c(CNC(=O)/C=C/c2ccc(O)c(O)c2)c1O [Compound (Ia)],Reduction of the gene expression compared to the basal level based on 100% (MMP-3),MMP-3,−50%
same,Double-strand breaks of the DNA for NHDF (AU),NHDF cells,8752*** AU
same,Double-strand breaks of the DNA for NHEK (AU),NHEK cells [1],11193* AU
same,Cellular viability during the exposure or non-exposure to cadmium (optical density),[2],1.28 optical density
same,Cellular viability on NHEK (Optical density),NHEK cells [3],2.589 Optical density
same,"Morphology of the skin (epidermal barrier, structure of the dermis) after UVA",[4],the epidermal barrier is preserved from the degradation by the UVAs and the structure of the dermis is preserved
